# Laboratory results from publication PMC5021139 (Journal of Neuroendocrinology, 2016).
# *1 amine or outer side, *2 acyl side, *3 side chain or, on linkers, in order; H or OH if unused. Where a SMILES comes first, the peptide text is derived from it. Bridges are numbered along the chain shown (N, C = ends). Where no end group is shown, it is not given here. X1 = O=C(CCC[*:2])[*:1]
# T1: human oxytocin receptor fused to Renilla luciferase (hOXTR‐Rluc) (human, UniProt P30559 1-389)
# T1 construct: oxytocin receptor, human; Rluc introduced at the C-terminus; source: HEK293, transfected (PEI), in living cells; not shown: Rluc (Renilla luciferase), C-terminal, kept
# T1 sequence (looked up): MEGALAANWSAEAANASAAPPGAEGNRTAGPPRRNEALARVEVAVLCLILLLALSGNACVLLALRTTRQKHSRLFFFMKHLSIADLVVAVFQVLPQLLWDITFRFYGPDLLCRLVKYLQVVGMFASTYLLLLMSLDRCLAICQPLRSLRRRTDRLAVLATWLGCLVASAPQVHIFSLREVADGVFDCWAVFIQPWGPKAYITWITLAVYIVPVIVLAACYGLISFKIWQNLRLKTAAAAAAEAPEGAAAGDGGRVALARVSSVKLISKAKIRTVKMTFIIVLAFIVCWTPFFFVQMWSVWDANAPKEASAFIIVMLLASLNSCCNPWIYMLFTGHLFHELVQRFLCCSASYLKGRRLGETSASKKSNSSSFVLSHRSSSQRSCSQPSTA
# Experiments:
# [1] = test system: OXTR; conditions: cited from earlier work
# [2] = biological target: T2, human oxytocin receptor (hOXTR) (Homo sapiens, UniProt P30559)
# [3] = test system: human vasopressin V1a receptor (V1aR); assay: BRET2 G-protein activation at V1aR in HEK293 cells; format: cell-based; conditions: 10 μM ligand, 2 min, Gq, Gi1, Gi2, Gi3, Go, minimum of three experiments
# From the text: (A) V1aR or (B) V1bR were transfected together with GFP10‐Gγ2, Gβ1 and different Rluc8‐tagged Gα subunits: Gq, Gi1, Gi2, Gi3, Go.
# [4] = test system: human vasopressin V1b receptor (V1bR); assay: BRET2 G-protein activation at V1bR in HEK293 cells; conditions: 10 μM ligand, 2 min, Gq, Gi1, Gi2, Gi3, Go, minimum of three experiments
# [5] = test system: somatostatin receptor (SST2R); parameters: method as in PMID 25012983; conditions: functioning gastroenteropancreatic neuroendocrine tumours; cited from earlier work
# [6] = test system: aminopeptidase and disulphidase; conditions: cited from earlier work
# [7] = biological target: T2, human oxytocin receptor (hOXTR); assay: cell-based; conditions: HEK293, read-out: maximal activation (BRETmax) relative to oxytocin
# [8] = biological target: T2, human oxytocin receptor (hOXTR); conditions: carbetocin vs oxytocin
# [9] = cited from earlier work
# [10] = parameters: method as in PMID 6831225; conditions: cited from earlier work
# [11] = parameters: method as in PMID 6831225; conditions: parenteral administration; cited from earlier work
# [12] = biological target: T1, human oxytocin receptor fused to …; assay: FRET or BRET; kinetic BRET1 in HEK293 cells co-transfected with hOXTR-Rluc (donor) and β-arrestin1- or β-arrestin2-Venus (acceptor); cells in PBS with 0.1% glucose at room temperature; coelenterazine h added 8 min before oxytocin (10 μM); read in real time for 5 min; conditions: partners not purified
molecule,measurement,setting,value
atosiban,G-protein functional selectivity,[1],a Gi3 functional selective agonists
carbetocin (deamino‐1‐monocarba‐(2‐O‐methyltyrosine)‐oxytocin) (peptide),"EC50 of Gq activation (BRET2 between Gαq-Rluc8 and GFP10-Gγ2) in HEK293 cells expressing hOXTR, 10^-13 to 10^-5 M, 2 min",[2],48.8 nM
same,"maximal activation (BRETmax) of the Gq biosensor in HEK293 cells expressing hOXTR, against that of oxytocin (% of oxytocin)",[2],45
"arginine vasopressin: neuropeptide arginine vasopressin, obtained from Bachem (CYFQNCPRG; not fully specified (C-terminus, bridges); cysteine pairing not given here; UniProt P01185 20-28, looked up)","V1aR activation, all G-proteins tested",[3],significantly promoted the coupling/activation
same,"V1bR activation, all G-proteins tested",[4],significantly promoted the coupling/activation
octreotide,antisecretory potency on long-term treatment,[5],antisecretory potency decreased with long‐term treatment as a consequence of the persistent internalisation of SST2R
"CC[C@H](C)[C@@H]1NC(=O)[C@H](Cc2ccc(OC)cc2)NC(=O)CCCSC[C@@H](C(=O)N2CCC[C@H]2C(=O)N[C@@H](CC(C)C)C(=O)NCC(N)=O)NC(=O)[C@H](CC(N)=O)NC(=O)[C@H](CCC(N)=O)NC1=O [carbetocin, deamino‐1‐monocarba‐(2‐O‐methyltyrosine)‐oxytocin] (Y(Me)IQNCPLG-NH2; linker N-5 via X1)",protection from aminopeptidase degradation and disulphidase cleavage,[6],very effective protection of carbetocin from aminopeptidase degradation and disulphidase cleavage
same,Emax,[7],45 ± 6%
same,reduction in maximal OXTR/Gq activation compared to oxytocin,[8],50%
same,half-life in the peripheral circulation,[9],85 to 100 min
CC[C@H](C)[C@@H]1NC(=O)[C@H](Cc2ccc(O)cc2)NC(=O)[C@@H](N)CSSC[C@@H](C(=O)N2CCC[C@H]2C(=O)N[C@@H](CC(C)C)C(=O)NCC(N)=O)NC(=O)[C@H](CC(N)=O)NC(=O)[C@H](CCC(N)=O)NC1=O [oxytocin],half-life in the cerebrospinal fluid,[10],short half‐life
same,blood-brain barrier crossing,[11],does not cross the blood–brain barrier in a significant amount
same,half-life in the peripheral circulation,[9],3.4 min
same,half-life in the plasma,[9],short half‐life in the plasma
"β‐arrestin1‐Venus (natural protein, UniProt P49407 1-418, looked up, β-arrestin1; Venus (yellow variant of GFP) fused to its C-terminus; vector provided by Professor M. Locati; source: HEK293, transfected (PEI), in living cells; not shown: Venus, C-terminal, kept) MGDKGTRVFKKASPNGKLTVYLGKRDFVDHIDLVDPVDGVVLVDPEYLKERRVYVTLTCAFRYGREDLDVLGLTFRKDLFVANVQSFPPAPEDKKPLTRLQERLIKKLGEHAYPFTFEIPPNLPCSVTLQPGPEDTGKACGVDYEVKAFCAENLEEKIHKRNSVRLVIRKVQYAPERPGPQPTAETTRQFLMSDKPLHLEASLDKEIYYHGEPISVNVHVTNNTNKTVKKIKISVRQYADICLFNTAQYKCPVAMEEADDTVAPSSTFCKVYTLTPFLANNREKRGLALDGKLKHEDTNLASSTLLREGANREILGIIVSYKVKVKLVVSRGGLLGDLASSDVAVELPFTLMHPKPKEEPPHREVPENETPVDTNLIELDTNDDDIVFEDFARQRLKGMKDDKEEEEDGTGSPQLNNR",t1/2 of the oxytocin-induced increase of the BRET ratio,[12],1.98 min
